Measured values as given in patent US20260015350A1, “AZAQUINAZOLINE PAN-KRAS INHIBITORS” (Mirati Therapeutics, Inc., priority 2022, published 2026).

What was measured:
KRas^G12R = biological target: T1, KRas^G12R (Homo sapiens, UniProt P01116, G12R); assay: KRas binding assay (TR-FRET tracer displacement), KRas G12R
T1 construct: Biotinylated KRas (corresponding to amino acids 1-169, produced at Accelegan Inc.); biotin (biotinylated); purchased Accelegan Inc

[1] = tested on: KRas-mediated phosphorylation of ERK in H460 cells; assay: Inhibition of KRas-mediated phosphorylation of ERK (Cisbio HTRF pERK), H460 cells; assay type: cell-based; conditions: Homo sapiens; for IC50: NCI-H460, HTRF pERK; for inhibition at 0.1 µM: NCI-H460, 3 h, single point, 100 nM compound, 3 hrs
Method in brief: (§1)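 Compound treatment lasts 3 hrs on 6,000 seeded cells, testing 10 doses from a 10 uM top concentration in 3-fold decrements at 0.8% final DMSO. Trametinib at 0.2 uM defines the Min signal. Detection is HTRF on cold-lysed cell extracts.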

KRas^G12D = biological target: T2, KRas^G12D (Homo sapiens, UniProt P01116, G12D); assay: KRas binding assay (TR-FRET tracer displacement), KRas G12D
T2 construct: Biotinylated KRas (corresponding to amino acids 1-169, produced at Accelegan Inc.); biotin (biotinylated); purchased Accelegan Inc
T2 sequence (P01116 1-169 isoform P01116-2 G12D): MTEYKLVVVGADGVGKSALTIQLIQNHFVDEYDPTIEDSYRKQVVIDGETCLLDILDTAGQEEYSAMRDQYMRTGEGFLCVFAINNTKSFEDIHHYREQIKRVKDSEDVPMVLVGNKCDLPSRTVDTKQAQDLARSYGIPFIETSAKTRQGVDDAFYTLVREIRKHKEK

KRas^G12V = biological target: T3, KRas^G12V (Homo sapiens, UniProt P01116, G12V); assay: KRas binding assay (TR-FRET tracer displacement), KRas G12V
T3 construct: Biotinylated KRas (corresponding to amino acids 1-169, produced at Accelegan Inc.); biotin (biotinylated); purchased Accelegan Inc
T3 sequence (P01116 1-169 isoform P01116-2 G12V): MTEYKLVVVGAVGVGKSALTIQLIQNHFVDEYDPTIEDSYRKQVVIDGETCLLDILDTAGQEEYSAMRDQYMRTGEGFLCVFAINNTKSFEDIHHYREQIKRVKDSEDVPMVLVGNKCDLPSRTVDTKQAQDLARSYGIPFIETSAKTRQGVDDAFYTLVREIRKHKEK

[2] = tested on: KRas-mediated phosphorylation of ERK in H358 cells; assay: Inhibition of KRas-mediated phosphorylation of ERK (Cisbio HTRF pERK), H358 cells; assay type: cell-based; conditions: Homo sapiens; for IC50: NCI-H358, HTRF pERK; for inhibition at 0.1 µM: NCI-H358, 3 h, single point, 100 nM compound, 3 hrs
Procedure: Inhibition of KRas Phosphorylation of ERK (HTRF) by Exemplary Compounds of Formula (I) Cisbio HTRF Advanced PERK Assay Catalog #64[…] […] Add 10 mL of media to stop trypsinizing. Pipette the cells into a conical bottom 50 mL centrifuge tube and centrifuge 5 min×1000 rpm. […] Re-suspend the cell pellet in media, take a cell count, and then adjust the cell density using fresh media. […] Seed 6,000 cells into cell culture plate with 50 μL media. […] Use Tecan to complete the compound addition. Compounds start from 10 uM top, 3-fold dilution, and 10 doses. The final DMSO concentration is 0.8%. Dispensed 0.2 uM Trametinib as Min control. […] Incubate cell plate for 3 hrs in the incubator. […] Dilute 1 volume of 4× lysis buffer with 3 volumes of deionized water. […] Keep lysis buffer on the ice. […] At the end of the compound treatment, flick-off the media. […] Add 35 μL of lysis buffer per well using a Multidrop Combi. Then place on a plate agitator shaking at 300 rpm at 4° C. for 40 mins. […] Make up the HTRF antibody buffer. For each assay plate, mix 50 μL of d2-conjugate antibody with 950 μL of detection buffer. Similarly, mix 50 μL of Cryptate antibody with 950 μL of detection buffer. Then mix the two diluted antibodies together. […] Dispense 3.4 μL the antibody buffer to wells of an empty assay plate. Seal the plate and centrifuge plate 30 sec×1000 rpm. […] At the end of the 4° C. lysis, centrifuge the lysate plates 3 mins×1500 rpm. […] Use the Bravo to transfer 13.6 μL of lysate from cell culture plate to assay plate. Then incubate assay plate for 2 hrs at room temperature. 8. At the end of incubation, read plate on the Envision after centrifuging plate 30 sec×1000 rpm.

[3] = tested on: KRas-mediated phosphorylation of ERK in AsPC-1 cells; assay: Inhibition of KRas-mediated phosphorylation of ERK (Cisbio HTRF pERK), AsPC-1 cells; assay type: cell-based; conditions: Homo sapiens, ASPC1, AsPC-1 cells; HTRF pERK
Method in brief: as §1

[4] = tested on: KRas-mediated phosphorylation of ERK in A549 cells; assay: Inhibition of KRas-mediated phosphorylation of ERK (Cisbio HTRF pERK), A549 cells; assay type: cell-based; conditions: Homo sapiens; for IC50: HTRF pERK; for inhibition at 0.1 µM: A549, 3 h, single point, 100 nM compound, 3 hrs
Method in brief: (§2)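 Phosphorylated ERK was quantified by HTRF using d2-conjugate and Cryptate antibodies added to lysates for 2 hrs at room temperature.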

[5] = tested on: KRas-mediated phosphorylation of ERK in H727 cells; assay: Inhibition of KRas-mediated phosphorylation of ERK (Cisbio HTRF pERK), H727 cells; assay type: cell-based; conditions: Homo sapiens, NCI-H727, H727 cells; HTRF pERK
Method in brief: as §1

[6] = tested on: KRas-mediated phosphorylation of ERK in HCT116 cells; assay: Inhibition of KRas-mediated phosphorylation of ERK (Cisbio HTRF pERK), HCT116 cells; assay type: cell-based; conditions: Homo sapiens; for IC50: HCT-116, HTRF pERK; for inhibition at 0.1 µM: HCT-116, 3 h, single point, 100 nM compound, 3 hrs
Method in brief: as §2

T1 sequence (P01116 1-169 isoform P01116-2 G12R): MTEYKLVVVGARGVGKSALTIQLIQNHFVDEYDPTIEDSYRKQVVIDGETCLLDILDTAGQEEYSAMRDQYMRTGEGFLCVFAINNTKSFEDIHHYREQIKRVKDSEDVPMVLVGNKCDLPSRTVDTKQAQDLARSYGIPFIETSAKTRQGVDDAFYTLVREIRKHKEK

CCc1c(F)ccc2cc(O)cc(-c3ncc4c(N5CCCC6(CC6C#N)C5)nc(OC[C@@]56CCCN5C[C@H](F)C6)nc4c3F)c12 (stereo partly drawn) [Example 851, 5-(7-(8-ethyl-7-fluoro-3-hydroxynaphthalen-1-yl)-8-fluoro-2-(((2R,7aS)-2-fluorotetrahydro-1H-pyrrolizin-7a(5H)-yl)methoxy)pyrido[4,3-d]pyrimidin-4-yl)-5-azaspiro[2.5]octane-1-carbonitrile]
IC50 (KRas^G12R): 9 nM
IC50 [1]: 159 nM
IC50 (KRas^G12D): 36 nM
IC50 (KRas^G12V): 12 nM
IC50 [2]: 264 nM
IC50 [3]: 1210 nM
IC50 [4]: 397 nM
IC50 [5]: 932 nM
IC50 [6]: 475 nM

CCc1c(F)ccc2cc(O)cc(-c3ncc4c(N5CCCC(C6CCOC6)C5)nc(OC[C@@]56CCCN5C[C@H](F)C6)nc4c3F)c12 (stereo partly drawn) [Example 595, 5-ethyl-6-fluoro-4-(8-fluoro-2-(((2R,7aS)-2-fluorohexahydro-1H-pyrrolizin-7a-yl)methoxy)-4-(3-(tetrahydrofuran-3-yl)piperidin-1-yl)pyrido[4,3-d]pyrimidin-7-yl)naphthalen-2-ol]
IC50 (KRas^G12R): 85 nM
inhibition at 0.1 µM [1]: 12%
IC50 (KRas^G12D): 194 nM
IC50 (KRas^G12V): 38 nM
inhibition at 0.1 µM [2]: -1%
IC50 [3]: 1570 nM
inhibition at 0.1 µM [4]: 3%
IC50 [5]: 1190 nM
inhibition at 0.1 µM [6]: -9%

CCc1c(F)ccc2cc(O)cc(-c3ncc4c(N5CC6CCC(CC(N)=O)(C6)C5)nc(OC[C@@]56CCCN5C[C@H](F)C6)nc4c3F)c12 (stereo partly drawn) [Example 908, 2-(3-(7-(8-ethyl-7-fluoro-3-hydroxynaphthalen-1-yl)-8-fluoro-2-(((2R,7aS)-2-fluorotetrahydro-1H-pyrrolizin-7a(5H)-yl)methoxy)pyrido[4,3-d]pyrimidin-4-yl)-3-azabicyclo[3.2.1]octan-1-yl)acetamide]
IC50 (KRas^G12R): 8 nM
IC50 [1]: 630 nM
IC50 (KRas^G12D): 14 nM
IC50 (KRas^G12V): 6 nM
IC50 [2]: 707 nM
IC50 [3]: 5800 nM
IC50 [4]: 1630 nM
IC50 [5]: 2310 nM
IC50 [6]: 1730 nM

CCc1c(F)ccc2cc(O)cc(-c3ncc4c(N5CCCc6ncncc6C5)nc(OC[C@@]56CCCN5C[C@H](F)C6)nc4c3F)c12 [Example 582, 4-(4-(8,9-dihydro-5H-pyrimido[5,4-c]azepin-6(7H)-yl)-8-fluoro-2-(((2R,7aS)-2-fluorohexahydro-1H-pyrrolizin-7a-yl)methoxy)pyrido[4,3-d]pyrimidin-7-yl)-5-ethyl-6-fluoronaphthalen-2-ol]
IC50 (KRas^G12R): 10 nM
inhibition at 0.1 µM [1]: 3%
IC50 (KRas^G12D): 3 nM
IC50 (KRas^G12V): 11 nM
inhibition at 0.1 µM [2]: 15%
IC50 [3]: 130 nM
inhibition at 0.1 µM [4]: 32%
IC50 [5]: 328 nM
inhibition at 0.1 µM [6]: 13%

CCc1c(F)ccc2cc(O)cc(-c3ncc4c(N5CCC[C@@](C)(O)C5)nc(OCC56CNCC5C6)nc4c3F)c12 (stereo partly drawn) [Example 695, (3R)-1-(2-((3-azabicyclo[3.1.0]hexan-1-yl)methoxy)-7-(8-ethyl-7-fluoro-3-hydroxynaphthalen-1-yl)-8-fluoropyrido[4,3-d]pyrimidin-4-yl)-3-methylpiperidin-3-ol]
IC50 (KRas^G12R): 8 nM
inhibition at 0.1 µM [1]: -2%
IC50 (KRas^G12D): 4 nM
IC50 (KRas^G12V): 5 nM
inhibition at 0.1 µM [2]: -1%
IC50 [3]: 1110 nM
inhibition at 0.1 µM [4]: 16%
IC50 [5]: 2690 nM
inhibition at 0.1 µM [6]: 13%

CCc1c(F)ccc2cc(O)cc(-c3ncc4c(N5CCC[C@@](C)(O)C5)nc(N5CC(C)(N)C5)nc4c3F)c12 [Example 530, (R)-1-(2-(3-amino-3-methylazetidin-1-yl)-7-(8-ethyl-7-fluoro-3-hydroxynaphthalen-1-yl)-8-fluoropyrido[4,3-d]pyrimidin-4-yl)-3-methylpiperidin-3-ol]
IC50 (KRas^G12R): 91 nM
inhibition at 0.1 µM [1]: 18%
IC50 (KRas^G12D): 59 nM
IC50 (KRas^G12V): 66 nM
inhibition at 0.1 µM [2]: 6%
IC50 [3]: 2770 nM
inhibition at 0.1 µM [4]: 15%
IC50 [5]: 4390 nM
inhibition at 0.1 µM [6]: -6%
